Here are results for three compounds from publication PMC4724249 (European journal of medicinal chemistry, 2015).

Assay [1] relates to MRSA CBD-635 and P. aeruginosa USF-1423. Description: MIC of reference antibiotics at the start of serial passage. The following applies: organism not stated in the legend of Figure 4. It is filed as cell-based.
Assay [2] relates to a variety of fungi and Gram-positive bacteria. The note with it: cited from earlier work.

For `O=C(O)c1cn(C2CC2)c2cc(N3CCNCC3)c(F)cc2c1=O` [ciprofloxacin], in assay [1], the “MIC of reference antibiotic” value worked out at 30 µM.

As to `CN[C@H](CC(C)C)C(=O)N[C@H]1C(=O)N[C@@H](CC(N)=O)C(=O)N[C@H]2C(=O)N[C@H]3C(=O)N[C@H](C(=O)N[C@H](C(=O)O)c4cc(O)cc(O)c4-c4cc3ccc4O)[C@H](O)c3ccc(c(Cl)c3)Oc3cc2cc(c3O[C@@H]2O[C@H](CO)[C@@H](O)[C@H](O)[C@H]2O[C@H]2C[C@](C)(N)[C@H](O)[C@H](C)O2)Oc2ccc(cc2Cl)[C@H]1O` [Vancomycin], the “MIC of reference antibiotic” value in assay [1] worked out at 7 µM.

fusaricidin A: in assay [2], the MICs is 0.78 to 3.12 µg/mL.
